We go through 24 molecules from patent EP3057951B1, “METHYLENE LINKED QUINOLINYL MODULATORS OF ROR-GAMMA-T” (Janssen Pharmaceutica NV, priority 2013, dated 2015).

Molecules are shown by their SMILES. Structures can show the parent of a compound that is named as a salt. Where two headings read alike, the source gives them in different places.

For the assay, the target named is T1, wild type human RORγt LBD (Homo sapiens, UniProt P51449).
T1 construct: expressed in transfected cells; host or cells: HEK293T
T1 sequence (P51449 258-518): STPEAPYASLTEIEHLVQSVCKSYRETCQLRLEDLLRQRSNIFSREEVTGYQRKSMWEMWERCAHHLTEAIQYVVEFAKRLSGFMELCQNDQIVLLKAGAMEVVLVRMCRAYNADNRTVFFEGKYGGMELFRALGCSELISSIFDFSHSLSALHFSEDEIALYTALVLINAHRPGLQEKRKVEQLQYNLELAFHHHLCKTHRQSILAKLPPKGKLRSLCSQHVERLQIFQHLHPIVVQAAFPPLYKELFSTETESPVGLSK
The assay can be described thus: RORγt (LBD) Reporter Assay (GAL4-luciferase, HEK293T cells). It counts as cell-based. The note with it: for inhibition at 6 µM: HEK-293T, read-out: RORγt (LBD) Reporter Assay, % inhibition @ 6 µM, 6 µM compound concentration; for RORγt (LBD) Reporter Assay, % inhibition @ 6 µM: 6 µM compound concentration.

Regarding `COc1c(Cc2ccccc2)c(C(F)(F)F)nc2ccc(C(O)(c3ccc(Cl)cc3)c3cncn3C)cc12` (single isomer, unassigned) [Example 101c], the inhibition at 6 µM came out at 89%.
As to `CNC(c1ccc2nc(OC)c(Cc3ccc(C(F)(F)F)cc3)c(Cl)c2c1)(c1ccc(C)nc1C)c1cnnn1C` (single isomer, unassigned) [Example 121b, 1-(4-Chloro-2-methoxy-3-(4-(trifluoromethyl)benzyl)quinolin-6-yl)-1-(2,6-dimethylpyridin-3-yl)-N-methyl-1-(1-methyl-1H-1,2,3-triazol-5-yl)methanamine•TFA], the inhibition at 6 µM (HEK293T cells) amounted to 98%.
Turning to `Cn1cncc1C(O)(c1ccc(C(F)(F)F)nc1)c1ccc2nc(-n3cccn3)c(Cc3ccccc3)c(C#N)c2c1` (single isomer, unassigned) [Example 114c, 3-Benzyl-6-(hydroxy(1-methyl-1H-imidazol-5-yl)(6-(trifluoromethyl)pyridin-3-yl)methyl)-2-(1H-pyrazol-1-yl)quinoline-4-carbonitrile•TFA], the “RORγt (LBD) Reporter Assay, % inhibition @ 6 µM” value (from here on “RORγt … % inhibition @ 6 µM”) (HEK293T cells) is 71%.
With `COc1nc2ccc(C(O)(c3oc(C)nc3C)c3cnnn3C)cc2c(Cl)c1Cc1ccc(C(F)(F)F)cc1` (single isomer, unassigned) [Example 156b, (4-chloro-2-methoxy-3-(4-(trifluoromethyl)benzyl)quinolin-6-yl)(2,4-dimethylozazol-5-yl)(1-methyl-1H-1,2,3-triazol-5-yl)methanol], the inhibition at 6 µM (HEK293T cells) turned out to be 98%.
As for `COc1nc2ccc(C(N)(c3ccc(C(F)(F)F)nc3)c3cncn3C)cc2c(Cl)c1Cc1ccccc1` (single isomer, unassigned) [Example 120b, (3-Benzyl-4-chloro-2-methoxyquinolin-6-yl)(1-methyl-1H-imidazol-5-yl)(6-(trifluoromethyl)pyridin-3-yl)methanamine•TFA], the “RORγt … % inhibition @ 6 µM” value (HEK293T cells) amounted to 27%.
As for `Cn1cncc1C(O)(c1ccc(C(F)(F)F)nc1)c1ccc2nc(-c3nccn3C)c(Cc3ccccc3)c(Cl)c2c1` (single isomer, unassigned) [Example 113c, (3-Benzyl-4-chloro-2-(1-methyl-1H-imidazol-2-yl)quinolin-6-yl)(1-methyl-1H-imidazol-5-yl)(6-(trifluoromethyl)pyridin-3-yl)methanol•TFA], the inhibition at 6 µM (HEK293T cells) worked out at 90%.
Take `COc1nc2ccc(C(O)(c3ccc(C)nc3C)c3cnnn3C)cc2c(Cl)c1Cc1ccc(C(F)(F)F)nc1` (single isomer, unassigned) [Example 40b, (4-Chloro-2-methoxy-3-((6-(trifluoromethyl)pyridin-3-yl)methyl)quinolin-6-yl)(2,6-dimethylpyridin-3-yl)(1-methyl-1H-1,2,3-triazol-5-yl)methanol]: the inhibition at 6 µM turned out to be 88%.
Turning to `COc1c(Cc2ccccc2)c(C(F)(F)F)nc2ccc(C(O)(c3ccc(Cl)cc3)c3cncn3C)cc12` (single isomer, unassigned) [Example 101b], the inhibition at 6 µM amounted to 62%.
For `CNC(c1ccc2nc(OC)c(Cc3ccc(C(F)(F)F)cc3)c(Cl)c2c1)(c1ccc(C)nc1C)c1cnnn1C` (single isomer, unassigned) [Example 121c, 1-(4-Chloro-2-methoxy-3-(4-(trifluoromethyl)benzyl)quinolin-6-yl)-1-(2,6-dimethylpyridin-3-yl)-N-methyl-1-(1-methyl-1H-1,2,3-triazol-5-yl)methanamine•TFA], for the setting “HEK293T cells”, the “RORγt … % inhibition @ 6 µM” value was determined as 101%.
In the case of `COc1nc2ccc(C(O)(c3cnnn3C)c3cnc(C)n3C)cc2c(C#N)c1Cc1ccc(C(F)(F)F)nc1` (centres unmarked) [Example 44a, 6-((1,2-Dimethyl-1H-imidazol-5-yl)(hydroxy)(1-methyl-1H-1,2,3-triazol-5-yl)methyl)-2-methoxy-3-((6-(trifluoromethyl)pyridin-3-yl)methyl)quinoline-4-carbonitrile], the inhibition at 6 µM came out at 97%. The IC50 (HEK293T cells, value after the comma with ∼, > or < could not be included in the average) came to 7.6 nM.
As to `CCN(CC)c1nc2ccc(C(O)(c3ccc(Cl)cc3)c3cncn3C)cc2c(C#N)c1Cc1ccc(-n2cccn2)cc1` (single isomer, unassigned) [Example 154b, 3-(4-(1H-pyrazol-1-yl)benzyl)-6-((4-chlorophenyl)(hydroxy)(1-methyl-1H-imidazol-5-yl)methyl)-2-(diethylamino)quinoline4-carbonitrile], half-maximal inhibition (HEK293T cells) (IC50) required 140 nM.
`COc1nc2ccc(C(O)(c3ccc(C)nc3C)c3cnnn3C)cc2c(Cl)c1Cc1ccc(C(F)(F)F)nc1` (single isomer, unassigned) [Example 40c, (4-Chloro-2-methoxy-3-((6-(trifluoromethyl)pyridin-3-yl)methyl)quinolin-6-yl)(2,6-dimethylpyridin-3-yl)(1-methyl-1H-1,2,3-triazol-5-yl)methanol]: the “RORγt … % inhibition @ 6 µM” value turned out to be 94%.
In the case of `COc1nc2ccc(C(O)(c3ccccn3)c3cncn3C)cc2c(Cl)c1Cc1ccc(-n2cccn2)cc1` (single isomer, unassigned) [Example 64c, (3-(4-(1H-Pyrazol-1-yl)benzyl)-4-chloro-2-methoxyquinolin-6-yl)(1-methyl-1H-imidazol-5-yl)(pyridin-2-yl)methanol], the “RORγt … % inhibition @ 6 µM” value is 107%.
Regarding `COc1nc2ccc(C(c3ccc(C)nc3C)(c3cnnn3C)N(C)C)cc2c(Cl)c1Cc1ccc(C(F)(F)F)cc1` (single isomer, unassigned) [Example 122c, 1-(4-Chloro-2-methoxy-3-(4-(trifluoromethyl)benzyl)quinolin-6-yl)-1-(2,6-dimethylpyridin-3-yl)-N,N-dimethyl-1-(1-methyl-1H-1,2,3-triazol-5-yl)methanamine•TFA], the “RORγt … % inhibition @ 6 µM” value (HEK293T cells) is listed as 99%.
Take `COc1c(Cc2ccccc2)c(C(F)(F)F)nc2ccc(C(O)(c3ccc(Cl)cc3)c3cncn3C)cc12` (racemic) [Example 101a, (3-Benzyl-4-methoxy-2-(trifluoromethyl)quinolin-6-yl)(4-chlorophenyl)(1-methyl-1H-imidazol-5-yl)methanol•TFA]: the inhibition at 6 µM came out at 96%.
As for `COc1nc2ccc(C(O)(c3ccccn3)c3cncn3C)cc2c(Cl)c1Cc1ccc(-n2cccn2)cc1` (single isomer, unassigned) [Example 64b, (3-(4-(1H-Pyrazol-1-yl)benzyl)-4-chloro-2-methoxyquinolin-6-yl)(1-methyl-1H-imidazol-5-yl)(pyridin-2-yl)methanol], the inhibition at 6 µM was 103%.
Turning to `CC(=O)N1CCC(C(O)(c2ccc3nc(C(F)(F)F)c(Cc4ccccc4)c(Cl)c3c2)c2cncn2C)CC1` (single isomer, unassigned) [Example 115b, 1-(4-((3-Benzyl-4-chloro-2-(trifluoromethyl)quinolin-6-yl)(hydroxy)(1-methyl-1H-imidazol-5-yl)methyl)piperidin-1-yl)ethanone•TFA], the inhibition at 6 µM (HEK293T cells) was 67%.
In the case of `CC(=O)N1CCC(C(O)(c2ccc3nc(C(F)(F)F)c(Cc4ccccc4)c(Cl)c3c2)c2cncn2C)CC1` (single isomer, unassigned) [Example 115c, 1-(4-((3-Benzyl-4-chloro-2-(trifluoromethyl)quinolin-6-yl)(hydroxy)(1-methyl-1H-imidazol-5-yl)methyl)piperidin-1-yl)ethanone•TFA], the “RORγt … % inhibition @ 6 µM” value (HEK293T cells) is given as 70%.
With `Cn1cncc1C(O)(c1ccc(Cl)cc1)c1ccc2nc(Cl)c(Cc3ccc(C(F)(F)F)cc3)c(Cl)c2c1` (centres unmarked) [Example 155, (4-chlorophenyl)(2,4-dichloro-3-(4-(trifluoromethyl)benzyl)quinolin-6-yl)(1-methyl-1H-imidazol-5-yl)methanol•TFA], for the setting “HEK293T cells”, the IC50 turned out to be 160 nM and the inhibition at 6 µM came out at 88%.
For the molecule `COc1nc2ccc(C(c3ccc(C)nc3C)(c3cnnn3C)N(C)C)cc2c(Cl)c1Cc1ccc(C(F)(F)F)cc1` (single isomer, unassigned) [Example 122b, 1-(4-Chloro-2-methoxy-3-(4-(trifluoromethyl)benzyl)quinolin-6-yl)-1-(2,6-dimethylpyridin-3-yl)-N,N-dimethyl-1-(1-methyl-1H-1,2,3-triazol-5-yl)methanamine•TFA], the inhibition at 6 µM (HEK293T cells) was determined as 98%.
For `COc1nc2ccc(C(O)(c3oc(C)nc3C)c3cnnn3C)cc2c(Cl)c1Cc1ccc(C(F)(F)F)cc1` (single isomer, unassigned) [Example 156c, (4-chloro-2-methoxy-3-(4-(trifluoromethyl)benzyl)quinolin-6-yl)(2,4-dimethylozazol-5-yl)(1-methyl-1H-1,2,3-triazol-5-yl)methanol], the “RORγt … % inhibition @ 6 µM” value (HEK293T cells) is recorded as 99%.
As for `Cn1cncc1C(O)(c1ccc(C(F)(F)F)nc1)c1ccc2nc(-n3cccn3)c(Cc3ccccc3)c(C#N)c2c1` (single isomer, unassigned) [Example 114b, 3-Benzyl-6-(hydroxy(1-methyl-1H-imidazol-5-yl)(6-(trifluoromethyl)pyridin-3-yl)methyl)-2-(1H-pyrazol-1-yl)quinoline-4-carbonitrile•TFA], under “HEK293T cells”, the inhibition at 6 µM was 86%.
Consider `COc1nc2ccc(C(N)(c3ccc(C(F)(F)F)nc3)c3cncn3C)cc2c(Cl)c1Cc1ccccc1` (single isomer, unassigned) [Example 120c, (3-Benzyl-4-chloro-2-methoxyquinolin-6-yl)(1-methyl-1H-imidazol-5-yl)(6-(trifluoromethyl)pyridin-3-yl)methanamine•TFA], for which the “RORγt … % inhibition @ 6 µM” value (HEK293T cells) was found to be 66%.
With `COc1nc2ccc(C(O)(c3ccc(C)nc3C)c3cnnn3C)cc2c(Cl)c1Cc1ccc(C(F)(F)F)nc1` (centres unmarked) [Example 40a, (4-Chloro-2-methoxy-3-((6-(trifluoromethyl)pyridin-3-yl)methyl)quinolin-6-yl)(2,6-dimethylpyridin-3-yl)(1-methyl-1H-1,2,3-triazol-5-yl)methanol], the inhibition at 6 µM is 98%.
